For 43 compounds, IC50 results are on record in US9365558B2 (BRISTOL-MYERS SQUIBB COMPANY, priority 2013, dated 2016).

Broadly, the IC50 is the point on the concentration scale where inhibition reaches its midpoint.

SMILES strings stand for the structures.

Chain of Human MGAT-2 (Q3SYC2 whole entry): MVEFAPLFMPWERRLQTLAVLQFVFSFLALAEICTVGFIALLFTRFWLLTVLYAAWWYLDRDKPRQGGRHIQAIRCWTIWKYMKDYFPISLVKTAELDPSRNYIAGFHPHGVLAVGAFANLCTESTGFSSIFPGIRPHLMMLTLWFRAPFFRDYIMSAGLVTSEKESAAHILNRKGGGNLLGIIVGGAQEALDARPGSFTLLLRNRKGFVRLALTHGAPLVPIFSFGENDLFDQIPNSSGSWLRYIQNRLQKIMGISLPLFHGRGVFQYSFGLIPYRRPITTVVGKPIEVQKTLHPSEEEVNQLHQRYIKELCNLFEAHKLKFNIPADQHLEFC

The test has as its target Human MGAT-2 (Homo sapiens (Human), UniProt Q3SYC2). The test can be described thus: MGAT LCMS Assay. The class given is biochemical. The following applies: recombinant MGAT-2 membranes expressed in Sf9 cells; 100 μM 2-oleoylglycerol, 15 μM oleoyl-Coenzyme A; LC/MS of diolein; read-out: h-MGAT LCMS IC50. On the procedure:
Assay plates were run through a fully automated robotics system and shaken for 5 seconds every minute for a total 10 minutes. The reactions were then quenched with 120 μL of ice cold methanol containing 1 μg/mL 1,2-distearoyl-rac-glycerol as the internal standard. Plates were shaken for 2 minutes and spun down to remove protein precipitation. After the spin, samples were transferred to LC/MS compatible PCR plates. For LC/MS analysis, a ThermoFisher Surveyor pump, utilizing a Waters Symmetry C8, 50×2.1 mm column, was used for the chromatography of enzyme products. The buffer system consists of 0.1% formic acid in water with a mobile phase consisting 0.1% formic acid in methanol. The shallow gradient is 90-100% mobile phase in 0.2 min with a total run time of 2.3 min. The first 0.5 minutes of each injection was diverted to waste to eliminate the presence of Phosphate buffer in the enzymatic reaction. The column was run at 0.6 mL/min and a temperature of 65° C. Mass spectrometry analysis of the samples was performed on a ThermoFisher Quantum Triple quad utilizing APCI (+) as the mode of ionization. […] The ratio of Diolein to internal standard (Peak Area Ratio) is utilized to calculate IC50 values.
`CC(C)Cn1ccc(C2=C(C(=O)NS(=O)(=O)C3CC3)C(=O)N[C@@](c3ccc(CCCCC(F)(F)F)cc3F)(C(F)(F)F)C2)n1` [Example 54]: the IC50 stood at 0.059 µM.

On to `CC(C)Cn1ccc(C2=C(C(=O)NS(=O)(=O)C3CC3)C(=O)N[C@@](c3ccc(OCCCC(F)(F)F)cc3F)(C(F)(F)F)C2)n1` [Example 55], for which the IC50 was 0.062 µM.

Turning to `O=C1N[C@@](c2ccc(OCCCC(F)(F)F)cc2F)(C(F)(F)F)CC(c2ccn(CC3CC3)n2)=C1C(=O)NS(=O)(=O)C1CC1` [Example 56], the concentration for half-maximal inhibition (IC50) was found to be 0.013 µM.

For `O=C1N[C@@](c2ccc(OCCCC(F)(F)F)cc2F)(C(F)(F)F)CC(c2ccn(CC3CCC3)n2)=C1C(=O)NS(=O)(=O)C1CC1` [Example 57], the half-maximal inhibitory concentration (IC50) was 0.037 µM.

In the case of `O=C1N[C@@](c2cnn(CCCCCC(F)(F)F)c2)(C(F)(F)F)CC(c2ccc3c(c2)CCCC3)=C1C(=O)NS(=O)(=O)C1CC1` [Example 58], the IC50 came to 0.013 µM.

For the compound `O=C1N[C@@](c2cnn(CCCCCC(F)(F)F)c2)(C(F)(F)F)CC(c2ccc(C3CC3)s2)=C1C(=O)NS(=O)(=O)C1CC1` [Example 59], the half-inhibitory concentration (IC50) amounted to 0.004 µM.

As for `C[C@@]1(c2ccc(OCCCC(F)(F)F)cc2)CC(c2ccn(CC3CC3)n2)=C(C(=O)NS(=O)(=O)C2CC2)C(=O)N1` [Example 60], the IC50 is 0.034 µM.

On to `Cc1ccc(C2=C(C(=O)NS(N)(=O)=O)C(=O)N[C@@](c3ccc(OCCCC(F)(F)F)cc3)(C(F)(F)F)C2)cc1` [Example 61], for which the IC50 worked out at 0.045 µM.

In the case of `O=C1N[C@@](c2ccc(OCCCCC(F)(F)F)cc2)(C(F)(F)F)CC(c2ccc(C3CC3)s2)=C1C(=O)NS(=O)(=O)C1CC1` [Example 62], the IC50 came to 0.008 µM.

Turning to `O=C1N[C@@](c2ccc(OCCCC(F)(F)F)cc2)(C(F)(F)F)CC(c2ccc(C3CC3)s2)=C1C(=O)NS(=O)(=O)C1CC1` [Example 63], the IC50 was 0.005 µM.

Turning to `CS(=O)(=O)NC(=O)C1=C(c2ccc(C3CC3)s2)C[C@](c2ccc(OCCCC(F)(F)F)cc2)(C(F)(F)F)NC1=O` [Example 64], the concentration for half-maximal inhibition (IC50) was found to be 0.006 µM.

As to `CS(=O)(=O)NC(=O)C1=C(c2ccc(C3CC3)s2)C[C@](c2ccc(OCCCC(F)(F)F)cc2F)(C(F)(F)F)NC1=O` [Example 65], the IC50 turned out to be 0.004 µM.

Take `CS(=O)(=O)NC(=O)C1=C(c2ccc3c(c2)CCC3)C[C@](c2ccc(OCCCC(F)(F)F)cc2F)(C(F)(F)F)NC1=O` [Example 66]: the IC50 was 0.022 µM.

Turning to `CS(=O)(=O)NC(=O)C1=C(c2ccc(C(F)F)cc2)C[C@](c2ccc(OCCCCCC(F)(F)F)cc2F)(C(F)(F)F)NC1=O` [Example 67], the 50% inhibitory concentration (IC50) came out at 0.001 µM.

With `CS(=O)(=O)NC(=O)C1=C(c2ccc(C3CC3)cc2)C[C@](c2ccc(OCCCCCC(F)(F)F)cc2F)(C(F)(F)F)NC1=O` [Example 68], the IC50 was 0.001 µM.

As to `Cc1ccc(C2=C(C(=O)NS(=O)(=O)C3CC3)C(=O)N[C@@](c3ccc(OCCCC(F)(F)F)cc3Cl)(C(F)(F)F)C2)cc1` [Example 69], the 50% inhibitory concentration (IC50) stood at 0.009 µM.

Consider `O=C1N[C@@](c2ccc(OCCCC(F)(F)F)cc2F)(C(F)(F)F)CC(c2ncc(C3CC3)s2)=C1C(=O)NS(=O)(=O)C1CC1` [Example 70], for which the IC50 amounted to 0.002 µM.

As for `CS(=O)(=O)NC(=O)C1=C(c2ccc(C(F)F)cc2)C[C@](c2ccc(OCCCC(F)(F)F)cc2F)(C(F)(F)F)NC1=O` [Example 71], the IC50 was determined as 0.012 µM.

Take `CC(C)n1ccc(C2=C(C(=O)NS(=O)(=O)C3CC3)C(=O)N[C@@](c3ccc(OCCCCCC(F)(F)F)cc3)(C(F)(F)F)C2)c1` [Example 72]: the IC50 came out at 0.004 µM.

For `O=C1N[C@@](c2ccc(CCCCC(F)(F)F)cc2)(C(F)(F)F)CC(c2ccn(CC3CC3)n2)=C1C(=O)NS(=O)(=O)C1CC1` [Example 73], the IC50 turned out to be 0.002 µM.

Turning to `O=C1N[C@@](c2ccc(OCCCC(F)(F)F)cc2)(C(F)(F)F)CC(c2ccn(CC3CCC3)n2)=C1C(=O)NS(=O)(=O)C1CC1` [Example 74], the half-maximal inhibitory concentration (IC50) amounted to 0.017 µM.

As for `CC(C)n1ccc(C2=C(C(=O)NS(=O)(=O)C3CC3)C(=O)N[C@@](c3ccc(CCCCC(F)(F)F)cc3)(C(F)(F)F)C2)n1` [Example 75], the concentration for half-maximal inhibition (IC50) was 0.023 µM.

With `O=C1N[C@@](c2ccc(CCCCC(F)(F)F)cc2)(C(F)(F)F)CC(c2ccn(C3CC3)n2)=C1C(=O)NS(=O)(=O)C1CC1` [Example 76], the concentration for half-maximal inhibition (IC50) amounted to 0.072 µM.

For `O=C1N[C@@](c2ccc(OCCCC(F)(F)F)cc2)(C(F)(F)F)CC(c2ccn(C3CCC3)n2)=C1C(=O)NS(=O)(=O)C1CC1` [Example 77], the half-inhibitory concentration (IC50) stood at 0.029 µM.

For `O=C1N[C@@](c2ccc(OCCCCCC(F)(F)F)cc2)(C(F)(F)F)CC(c2ccn(C3CC3)n2)=C1C(=O)NS(=O)(=O)C1CC1` [Example 78], the half-inhibitory concentration (IC50) worked out at 0.025 µM.

Take `O=C1N[C@@](c2ccc(OCCCCCC(F)(F)F)cc2)(C(F)(F)F)CC(c2ccn(CC3CC3)n2)=C1C(=O)NS(=O)(=O)C1CC1` [Example 79]: the IC50 was determined as 0.003 µM.

Regarding `CC(C)Cn1ccc(C2=C(C(=O)NS(=O)(=O)C3CC3)C(=O)N[C@@](c3ccc(OCCCCCC(F)(F)F)cc3)(C(F)(F)F)C2)n1` [Example 81], the IC50 came to 0.043 µM.

Consider `CCc1ccc(C2=C(C(=O)NS(=O)(=O)C3CC3)C(=O)N[C@](C)(c3ccc(OCCCC(F)(F)F)cc3)C2)cc1` [Example 82], for which the IC50 was 0.002 µM.

With `CS(=O)(=O)NC(=O)C1=C(c2ccn(C3CC3)n2)C[C@](c2ccc(OCCCCCC(F)(F)F)cc2)(C(F)(F)F)NC1=O` [Example 83], the IC50 was found to be 0.006 µM.

As to `CC(C)(C)c1ccc(C2=C(C(=O)NS(C)(=O)=O)C(=O)N[C@](C)(c3ccc(OCCCC(F)(F)F)cc3)C2)cc1` [Example 85], the concentration for half-maximal inhibition (IC50) was determined as 0.027 µM.

Consider `CS(=O)(=O)NC(=O)C1=C(c2ccn(C3CC3)n2)C[C@](c2ccc(OCCCCCC(F)(F)F)cc2F)(C(F)(F)F)NC1=O` [Example 86], for which the half-maximal inhibitory concentration (IC50) was 0.166 µM.

Regarding `O=C1N[C@@](c2ccc(OCCCC(F)(F)F)cc2)(C(F)(F)F)CC(c2ccn(C3CC3)n2)=C1C(=O)NS(=O)(=O)C1CC1` [Example 87], the IC50 turned out to be 0.098 µM.

Turning to `O=C1N[C@@](c2ccc(OCCCC(F)(F)F)cc2)(C(F)(F)F)CC(c2ccn(CC3CC3)n2)=C1C(=O)NS(=O)(=O)C1CC1` [Example 88], the half-maximal inhibitory concentration (IC50) worked out at 0.067 µM.

Take `O=C1N[C@@](c2ccc(OCCCCCC(F)(F)F)cc2F)(C(F)(F)F)CC(c2ccn(C3CC3)n2)=C1C(=O)NS(=O)(=O)C1CC1` [Example 89]: the IC50 was found to be 0.006 µM.

Consider `CS(=O)(=O)NC(=O)C1=C(c2ccn(CC3CCC3)n2)C[C@](c2ccc(OCCCC(F)(F)F)cc2)(C(F)(F)F)NC1=O` [Example 90], for which the 50% inhibitory concentration (IC50) came out at 0.008 µM.

For `CS(=O)(=O)NC(=O)C1=C(c2ccn(CC3CC3)n2)C[C@](c2ccc(OCCCC(F)(F)F)cc2)(C(F)(F)F)NC1=O` [Example 91], the IC50 worked out at 0.023 µM.

`Cc1ccc(C2=C(C(=O)NS(=O)(=O)C3CC3)C(=O)N[C@@](c3cnn(CCCCCC(F)(F)F)c3)(C(F)(F)F)C2)cc1` [Example 93]: the IC50 was 0.179 µM.

`O=C1N[C@@](c2cnn(CCCCCCC(F)(F)F)c2)(C(F)(F)F)CC(c2ccc3c(c2)CCCC3)=C1C(=O)NS(=O)(=O)C1CC1` [Example 94]: the half-maximal inhibitory concentration (IC50) was found to be 0.004 µM.

For the compound `O=C1N[C@@](c2cnn(CC/C=C/CCC(F)(F)F)c2)(C(F)(F)F)CC(c2ccc3c(c2)CCCC3)=C1C(=O)NS(=O)(=O)C1CC1` [Example 95], the IC50 was determined as 0.088 µM.

Turning to `CCOc1ccc(C2=C(C(=O)NS(=O)(=O)C3CC3)C(=O)N[C@@](c3ccc(OCCCC(F)(F)F)cc3F)(C(F)(F)F)C2)cc1` [Example 96], the half-maximal inhibitory concentration (IC50) stood at 0.007 µM.

Take `CCOc1ccc(C2=C(C(=O)NS(C)(=O)=O)C(=O)N[C@@](c3ccc(OCCCC(F)(F)F)cc3F)(C(F)(F)F)C2)cc1` [Example 97]: the IC50 was 0.042 µM.

On to `Cc1ccc(C2=C(C(=O)NS(=O)(=O)C3CC3)C(=O)N[C@@](C3CCCCC3)(C(F)(F)F)C2)cc1` [Example 98], for which the IC50 worked out at 0.022 µM.

Take `[2H]C1([2H])C(c2ccc(OC)cc2)=C(C(=O)NS(=O)(=O)C2CC2)C(=O)N[C@@]1(c1ccc(OCCCCCC(F)(F)F)cc1F)C(F)(F)F` [Example 99]: the IC50 worked out at 0.004 µM.
